Tests used:
[1] = Thickening behavior study: viscosity of surfactant systems; type: physicochemical; conditions: for Viscosity: 12% AM, NaCl 1, pH 5.5, additive(s) at 1% w/w each; for Viscosity (change after each sequential addition) / Change in viscosity (symbol under Viscosity) / Viscosity (LV3/12 rpm): pH 5.5; for Change in viscosity (symbol under Viscosity) / Viscosity (LV3/12 rpm): 14% AM sodium coco sulfate/decyl glucoside system, additive(s) at 1% each
Protocol: Four formulations are shown in the four rightmost columns of Table 14 with ingredients indicated as a percentage by weight. The formulations differ in percentages of sodium chloride, 3-(heptyloxy)propane-1,2-diol, and 3-[(n-octyl)oxy]-1,2-propanediol.
A thickening behavior study was also performed in another basic surfactant system: Anionic/Non Ionic (APG—alkyl polyglucoside). Each column corresponds to a particular formulation with ingredients listed as a percentage by weight. The remainder was water, represented by Qs. % AM indicates % of active matter (e.g. % of dry surfactant).
(§1) A further thickening behavior study was performed in a different basic surfactant system: anionic/amphoteric (CAPB—Cocamidopropyl betaine). Each column corresponds to a particular formulation with ingredients listed as a percentage by weight. The remainder was water, represented by Qs. % AM indicates % of active matter (e.g. % of dry surfactant).
A further thickening behavior study was performed to compare sulfated surfactants and sulfate free surfactants. Each column corresponds to a particular formulation with ingredients listed as a percentage by weight. The remainder was water, represented by Qs. % AM indicates % of active matter (e.g. % of dry surfactant). Sodium chloride, 3-(heptyloxy)propane-1,2-diol, and 3-[(n-octyl)oxy]-1,2-propanediol were added sequentially with the change in viscosity measured after each addition and noted in Table 17 below.
as §1, with “to determine viscosity differences with and without salt (e.g. sodium chloride).” for “in a different basic surfactant system: anionic/amphoteric (CAPB—Cocamidopropyl betaine).”

[2] = system: Staphylococcus epidermidis - code souchier C′; experiment: Roll-on deodorant challenge test (ISO 11930, odor-causing bacteria); type: cell-based; conditions: addition of 1% in natural roll-on deodorant
Protocol: The roll-on deodorant challenge tests shown below were conducted in accordance with ISO 11930 except that formulations were tested with bacteria Corynebacterium xerosis—code souchier M′ and Staphylococcus epidermidis—code souchier C′, which are two of the major odor-causing bacteria found in skin flora. The roll-on deodorant formulations used in the challenge tests are described in Tables 3 and 4 above. A non-preserved formulation without 3-(heptyloxy)propane-1,2-diol was used as a negative control, and the high concentration formulation with 1% 3-(heptyloxy)propane-1,2-diol by weight was tested.

[3] = system: microbial growth; experiment: BIOLUMIX assay to screen for preventing microbial growth; type: cell-based; conditions: 1% by weight in cleansing wipe, emulsion wipe, cream, shampoo, roll-on deodorant
From the text: Efficacy of the compositions in preventing microbial growth were screened with a BIOLUMIX assay. The BIOLUMIX assay produces a color change when carbon dioxide, indicative of microbial contamination, is detected in a sample. Non-preserved formulations without 3-(heptyloxy)propane-1,2-diol were used as negative controls, and formulations were used at particular percentages of 3-(heptyloxy)propane-1,2-diol by weight. Passing criteria is meeting criteria A in Table 5.

[4] = Skin irritancy and skin sensitization
[5] = Solubility in aqueous systems; type: physicochemical; conditions: compared to 3-(heptyloxy)propane-1,2-diol
[6] = Ammonium Lauryl Sulfate (ALS) 8/APG 4 system
[7] = Ammonium Lauryl Sulfate (ALS) 10/CAPB 2 system
[8] = Na Cocoyl Sulfate (SCS) 8/APG 4 system
[9] = Na Lauryl Ether Sulfate (SLES) 8/APG 4 system
[10] = Na Lauryl Ether Sulfate (SLES) 10/CAPB 2 system
[11] = Sulfate free: Na Cocoyl Glutamate 8/Decyl Glucoside 4, 12% AM, added sequentially NaCl 2, 3-(heptyloxy)propane-1,2-diol 1, 3-[(n-octyl)oxy]-1,2-propanediol 1
[12] = Sulfate free: Na Cocoyl Glycinate 8/Decyl Glucoside 4, 12% AM, added sequentially NaCl 2, 3-(heptyloxy)propane-1,2-diol 1, 3-[(n-octyl)oxy]-1,2-propanediol 1
[13] = Sulfate free: Na Lauroyl Sarcosinate 8/Decyl Glucoside 4, 12% AM, added sequentially NaCl 2, 3-(heptyloxy)propane-1,2-diol 1, 3-[(n-octyl)oxy]-1,2-propanediol 1
[14] = Sulfate free: Na Lauryl Glucose Carboxylate 8/Decyl Glucoside 4, 12% AM, added sequentially NaCl 2, 3-(heptyloxy)propane-1,2-diol 1, 3-[(n-octyl)oxy]-1,2-propanediol 1
[15] = Sulfate free: Na Lauryl Sulfoacetate 8/Decyl Glucoside 4, 12% AM, added sequentially NaCl 2, 3-(heptyloxy)propane-1,2-diol 1, 3-[(n-octyl)oxy]-1,2-propanediol 1
[16] = Sulfated: Ammonium Lauryl Sulfate 8/Decyl Glucoside 4, 12% AM, added sequentially NaCl 1, 3-(heptyloxy)propane-1,2-diol 1, 3-[(n-octyl)oxy]-1,2-propanediol 1
[17] = Sulfated: Na Coco Sulfate 8/Decyl Glucoside 4, 12% AM, added sequentially NaCl 1, 3-(heptyloxy)propane-1,2-diol 1, 3-[(n-octyl)oxy]-1,2-propanediol 1
[18] = Sulfated: Na Lauryl Ether Sulfate 8/Decyl Glucoside 4, 12% AM, added sequentially NaCl 1, 3-(heptyloxy)propane-1,2-diol 1, 3-[(n-octyl)oxy]-1,2-propanediol 1
[19] = Sulfated: Na Lauryl Sulfate 8/Decyl Glucoside 4, 12% AM, added sequentially NaCl 1, 3-(heptyloxy)propane-1,2-diol 1, 3-[(n-octyl)oxy]-1,2-propanediol 1

SMILES | Viscosity [1, 6] [cps] | Viscosity [1, 7] [cps] | Viscosity [1, 8] [cps] | Viscosity [1, 9] [cps] | Viscosity [1, 10] [cps] | Viscosity (change after each sequential addition) [1, 11] | Viscosity (change after each sequential addition) [1, 12] | Viscosity (change after each sequential addition) [1, 13] | Viscosity (change after each sequential addition) [1, 14] | Viscosity (change after each sequential addition) [1, 15] | Viscosity (change after each sequential addition) [1, 16] | Viscosity (change after each sequential addition) [1, 17] | Viscosity (change after each sequential addition) [1, 18] | Viscosity (change after each sequential addition) [1, 19] | Change in viscosity (symbol under Viscosity) ([1]; With 1% NaCl) | Viscosity (LV3/12 rpm) ([1]; With 1% NaCl) [cps] | other results
CCCCCCCOCC(O)CO (stereo not drawn) [3-(heptyloxy)propane-1,2-diol] | 260 | 2500 | 130 | 50 | 200 | ≈ | ≈ | ≈ | ≈ | ≈ | ↑+ | ↑+ | ↑+ | ↑ | ↑+ | 1600 | Change in viscosity (symbol under Viscosity) ([1]; Without Salt): ≈; Viscosity (LV3/12 rpm) ([1]; Without Salt, base without additives 70 cps): 80 cps; speed of logarithmic reduction of bacteria [2]: increases logarithmic reduction of bacteria such as Staphylococcus faster; microbial growth in products [3]: successfully blocks microbial growth; skin irritancy [4]: reduced/no skin irritancy; skin sensitization [4]: non-skin sensitizer
CCCCCCCCOCC(O)CO (stereo not drawn) [3-[(n-octyl)oxy]-1,2-propanediol] | 550 | 3250 | 370 | 50 | 700 | ≈ | ≈ | ≈ | ≈ | ≈ | ↑++ | ↑++ | ↑++ | ↑++ |  |  | solubility in aqueous systems [5]: lower solubility in aqueous systems
[Cl-].[Na+] [NaCl] |  |  |  |  |  | ≈ | ↑ | ≈ | ≈ | ≈ | ↑ | ↑ | ↑ | ↑ |  |  | 
[Cl-].[Na+] [Sodium Chloride] |  |  |  |  |  |  |  |  |  |  |  |  |  |  | ↑ | 280 | 

Reference: patent publication US20250090435A1, “PRESERVATIVES FOR COSMETIC AND PHARMACEUTICAL COMPOSITIONS” (priority 2021, published 2025)
